Assay results as given in patent US12503471B2, “Triazatricycle compounds for the treatment of autoimmune disease” (Hoffmann-La Roche Inc., priority 2019, dated 2025).

Tests used:
human TLR7 = target: T1, human TLR7 (Homo sapiens, UniProt Q9NYK1); test: HEK293-Blue-hTLR-7 cells assay; assay type: cell-based; details: HEK293-Blue-hTLR7 cells, R848 stimulation, 20 hrs, SEAP reporter; read-out: HEK/hTLR7 IC50
T1 construct: host or cells: HEK293 (HEK-Blue hTLR7)
T1 sequence (Q9NYK1 27-1049): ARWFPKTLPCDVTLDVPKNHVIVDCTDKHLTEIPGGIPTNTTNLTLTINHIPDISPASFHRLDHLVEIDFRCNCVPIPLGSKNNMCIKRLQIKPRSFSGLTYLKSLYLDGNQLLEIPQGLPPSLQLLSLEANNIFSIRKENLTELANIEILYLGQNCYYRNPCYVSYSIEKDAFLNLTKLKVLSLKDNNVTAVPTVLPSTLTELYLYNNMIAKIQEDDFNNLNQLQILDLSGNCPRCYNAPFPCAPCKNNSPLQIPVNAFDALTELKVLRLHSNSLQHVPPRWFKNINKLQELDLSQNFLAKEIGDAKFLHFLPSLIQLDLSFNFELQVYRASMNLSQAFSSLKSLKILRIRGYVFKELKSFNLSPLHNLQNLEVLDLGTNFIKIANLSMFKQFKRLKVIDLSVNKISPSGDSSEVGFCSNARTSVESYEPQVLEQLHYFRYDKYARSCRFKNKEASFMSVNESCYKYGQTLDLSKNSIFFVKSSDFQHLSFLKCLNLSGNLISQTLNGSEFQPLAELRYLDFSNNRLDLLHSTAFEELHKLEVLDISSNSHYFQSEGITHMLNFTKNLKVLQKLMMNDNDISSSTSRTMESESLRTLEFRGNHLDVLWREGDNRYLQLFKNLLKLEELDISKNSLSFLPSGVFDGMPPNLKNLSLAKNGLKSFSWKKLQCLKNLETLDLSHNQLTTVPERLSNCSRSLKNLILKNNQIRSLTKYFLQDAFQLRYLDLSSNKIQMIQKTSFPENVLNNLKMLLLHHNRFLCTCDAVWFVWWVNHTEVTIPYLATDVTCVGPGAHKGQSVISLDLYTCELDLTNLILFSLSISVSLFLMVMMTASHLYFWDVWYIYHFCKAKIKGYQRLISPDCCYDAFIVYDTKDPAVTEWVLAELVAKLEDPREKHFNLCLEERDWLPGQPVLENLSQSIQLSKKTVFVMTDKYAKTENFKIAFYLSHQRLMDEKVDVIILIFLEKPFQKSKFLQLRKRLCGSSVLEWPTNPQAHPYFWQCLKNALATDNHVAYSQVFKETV
Excerpt: HEK293-Blue-hTLR-7 Cells Assay:
A stable HEK293-Blue-hTLR-7 cell line was purchased from InvivoGen (Cat. #: hkb-htlr7, San Diego, Calif., USA). These cells were originally designed for studying the stimulation of human TLR7 by monitoring the activation of NF-κB. A SEAP (secreted embryonic alkaline phosphatase) reporter gene was placed under the control of the IFN-β minimal promoter fused to five NF-κB and AP-1-binding sites. The SEAP was induced by activating NF-κB and AP-1 via stimulating HEK-Blue hTLR7 cells with TLR7 ligands. Therefore the reporter expression was declined by TLR7 antagonist under the stimulation of a ligand, such as R848 (Resiquimod), for incubation of 20 hrs. The cell culture supernatant SEAP reporter activity was determined using QUANTI-Blue™ kit (Cat. #: rep-qbl, Invivogen, San Diego, Ca, USA) at a wavelength of 640 nm, a detection medium that turns purple or blue in the presence of alkaline phosphatase.
HEK293-Blue-hTLR7 cells were incubated at a density of 250,000˜450,000 cells/mL in a volume of 170 μL in a 96-well plate in Dulbecco's Modified Eagle's medium (DMEM) containing 4.5 g/L glucose, 50 U/mL penicillin, […], […], 2 mM L-glutamine, 10% (v/v) heat-inactivated fetal bovine serum with addition of 20 μL test compound in a serial dilution in the presence of final DMSO at 1% and 10 μL of 20 uM R848 in above DMEM, perform incubation under 37° C. in a CO2 incubator for 20 hrs. Then 20 μL of the supernatant from each well was incubated with 180 μL Quanti-blue substrate solution at 37° C. for 2 hrs and the absorbance was read at 620-655 nm using a spectrophotometer. The signaling pathway that TLR7 activation leads to downstream NF-κB activation has been widely accepted, and therefore similar reporter assay was modified for evaluating TLR7 antagonist.

[1] = Human microsomal stability assay; assay type: in vitro ADME; details: human liver microsomes, 1 μM test compound, 0.5 mg/mL protein, 37° C., pH 7.4
Method: Human Microsomal Stability Assay
Human liver microsomes (Cat.NO.: 452117, Corning, USA) were preincubated with test compound for 10 minutes at 37° C. in 100 mM potassium phosphate buffer, pH 7.4. The reactions were initiated by adding NADPH regenerating system. The final incubation mixtures contained 1 μM test compound, 0.5 mg/mL liver microsomal protein, 1 mM MgCl2, 1 mM NADP, 1 unit/mL isocitric dehydrogenase and 6 mM isocitric acid in 100 mM potassium phosphate buffer, pH 7.4. After incubation times of 0, 3, 6, 9, 15 and 30 minutes at 37° C., 300 μL of cold ACN (including internal standard) was added to 100 μL incubation mixture to terminate the reaction. Following precipitation and centrifugation, 100 uL supernatant will be taken out and added 300 uL water. The amount of compound remaining in the samples was determined by LC-MS/MS. Controls of no NADPH regenerating system at zero and 30 minutes were also prepared and analyzed. The results were categorized as: low (7.0 mL/min/kg), medium (7.0-16.2 mL/min/kg) and high (16.2-23.2 mL/min/kg).

IC50 (human TLR7) [nM] | CL (h) [1] [mL/min/kg] | Compound
3.1 | 6.2 | C[C@@H]1CN(c2ccc(C#N)c3ncccc23)C[C@@H]2c3cnc(N4CCNCC4)cc3CN12 [Example 2, 5-[(2S,6R)-6-methyl-11-piperazin-1-yl-4,7,12-triazatricyclo[7.4.0.02,7]trideca-1(9),10,12-trien-4-yl] quinoline-8-carbonitrile]
1.7 | 6.2 | [2H]c1ccc2c(N3C[C@@H](C)N4Cc5nc(C6CCNCC6)ccc5[C@H]4C3)ccc(C#N)c2n1 [Example 23, 2-Deuterio-5-[(2S,6R)-6-methyl-11-(4-piperidyl)-4,7,10-triazatricyclo[7.4.0.02,7]trideca-1(9),10,12-trien-4-yl]quinoline-8-carbonitrile]
1.3 | 6.2 | [2H]c1ccc2c(N3C[C@@H](C)N4Cc5nc(N6CC[C@](C)(N)C6)ccc5[C@H]4C3)ccc(C#N)c2n1 [Example 8, 5-[(2S,6R)-11-[(3S)-3-amino-3-methyl-pyrrolidin-1-yl]-6-methyl-4,7,10-triazatricyclo[7.4.0.02,7]trideca-1(9),10,12-trien-4-yl]-2-deuterio-quinoline-8-carbonitrile]
1.7 | 9.4 | [2H]c1ccc2c(N3C[C@@H](C)N4Cc5nc(N6CC[C@H](N)[C@H](OC)C6)ccc5[C@H]4C3)ccc(C#N)c2n1 [Example 13, 5-[(2S,6R)-11-[(3R,4S)-4-amino-3-methoxy-1-piperidyl]-6-methyl-4,7,10-triazatricyclo[7.4.0.02,7]trideca-1(9),10,12-trien-4-yl]-2-deuterio-quinoline-8-carbonitrile]
2.8 | 6.2 | [2H]c1ccc2c(N3C[C@@H](C)N4Cc5nc(N6CC[C@@](C)(N)C6)ccc5[C@H]4C3)ccc(C#N)c2n1 [Example 7, 5-[(2S,6R)-11-[(3R)-3-amino-3-methyl-pyrrolidin-1-yl]-6-methyl-4,7,10-triazatricyclo[7.4.0.02,7]trideca-1(9),10,12-trien-4-yl]-2-deuterio-quinoline-8-carbonitrile]
4.9 | 6.2 | C[C@@H]1CN(c2ccc(C#N)c3ncccc23)C[C@@H]2c3ccc(N4CC5CNCC(C4)O5)nc3CN12 [Example 6, 5-[(2S,6R)-6-methyl-11-(9-oxa-3,7-diazabicyclo[3.3.1]nonan-3-yl)-4,7,10-triazatricyclo[7.4.0.02,7]trideca-1(9),10,12-trien-4-yl]quinoline-8-carbonitrile]
8.7 | 8.9 | CC1(N)CCN(c2ccc3c(n2)CN2CCN(c4ccc(C#N)c5ncccc45)C[C@@H]32)CC1 [Example 4A, 5-[(2R)-11-(4-amino-4-methyl-1-piperidyl)-4,7,10-triazatricyclo[7.4.0.02,7]trideca-1(9),10,12-trien-4-yl]quinoline-8-carbonitrile]
7 | 6.6 | C[C@@H]1CN(c2ccc(C#N)n3nccc23)C[C@@H]2c3ccc(N4C[C@@H]5C[C@H]4CN5)nc3CN12 [Example 21, 4-[(2S,6R)-11-[(1S,4S)-2,5-diazabicyclo[2.2.1]heptan-2-yl]-6-methyl-4,7,10-triazatricyclo[7.4.0.02,7]trideca-1(9),10,12-trien-4-yl]pyrazolo[1,5-a]pyridine-7-carbonitrile]
